Source: PubChem BioAssay AID256 (DTP/NCI, 2004)
Several values for one entry are separate records, joined by “and”; a condition that tells them apart may be missing. Identical values can stand only once. Toxic doses and inconclusive results are not listed. How the source made its calls: active means survival T/C of 150% or more; inactive means T/C below 125% in these data.

Tested on: CD2F1 mice, L1210 leukemia ip, survival T/C
Assay: NCI In Vivo Anticancer Drug Screen. Data for tumor model L1210 Leukemia (intraperitoneal) in CD2F1 (CDF1) mice
Details: higher = longer survival
How it was run: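 Mice carrying a transplanted tumor received test compound or vehicle alone. The value is the measurement in the treated group divided by that in the vehicle-treated control group.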

[1] = endpoint: mean survival time, dose: 50.0 mg/kg/injection, schedule: Q01DX009 (ip), vehicle: saline with Tween-80
[2] = endpoint: mean survival time, dose: 100.0 mg/kg/injection, schedule: Q01DX009 (ip), vehicle: saline with Tween-80
[3] = endpoint: mean survival time, dose: 200.0 mg/kg/injection, schedule: Q01DX009 (ip), vehicle: saline with Tween-80
[4] = endpoint: mean survival time, dose: 100.0 mg/kg/injection, schedule: Q04DX003 (ip), vehicle: saline with Tween-80
[5] = endpoint: mean survival time, dose: 200.0 mg/kg/injection, schedule: Q04DX003 (ip), vehicle: saline with Tween-80
[6] = endpoint: mean survival time, dose: 400.0 mg/kg/injection, schedule: Q04DX003 (ip), vehicle: saline with Tween-80
[7] = endpoint: mean survival time, dose: 100.0 mg/kg/injection, schedule: Q04DX002 (ip), vehicle: saline with Tween-80

Measured: T/C

CCCCCC(C)O[Si](C)OCC (stereo not given)
inactive: endpoint: mean survival time, dose: 100.0 mg/kg/injection, schedule: Q04DX003 (ip), vehicle: saline 96 % of control | endpoint: mean survival time, dose: 200.0 mg/kg/injection, schedule: Q04DX003 (ip), vehicle: saline 106 % of control | endpoint: mean survival time, dose: 400.0 mg/kg/injection, schedule: Q04DX003 (ip), vehicle: saline 108 % of control

O=C1C2(CCCCC2)C(=O)C12CCCCC2
inactive: [1] 96 % of control | [2] 110 % of control | [3] 93 % of control

BrC1(Br)C2CCCCCCC21 (stereo not given)
inactive: [2] 91 % of control | [4] 87 % of control | [3] 87 % of control | [5] 98 % of control | [6] 96 % of control

N#CN=C([S-])[S-].N#CN=C([S-])[S-].[Cu]
inactive: endpoint: mean survival time, dose: 12.5 mg/kg/injection, schedule: Q04DX003 (ip), vehicle: acetone 93 % of control | endpoint: mean survival time, dose: 25.0 mg/kg/injection, schedule: Q04DX003 (ip), vehicle: acetone 94 % of control

CCCc1nc2[nH]c(N)nc(=S)c2[nH]1
inactive: endpoint: mean survival time, dose: 12.5 mg/kg/injection, schedule: Q01DX005 (ip), vehicle: other 100 % of control | endpoint: mean survival time, dose: 25.0 mg/kg/injection, schedule: Q01DX005 (ip), vehicle: other 108 % of control

COC(=O)Nc1ccccc1OS(=O)(=O)N(C)C
inactive: endpoint: mean survival time, dose: 25.0 mg/kg/injection, schedule: Q01DX009 (ip), vehicle: saline with Tween-80 95 % of control | [1] 104 % of control | [2] 96 % of control and 103 % of control

O=[N+]([O-])c1ccc(NN=C2c3ccccc3Cc3ccccc32)c([N+](=O)[O-])c1
inactive: endpoint: mean survival time, dose: 25.0 mg/kg/injection, schedule: Q04DX002 (ip), vehicle: saline with Tween-80 98 % of control | endpoint: mean survival time, dose: 50.0 mg/kg/injection, schedule: Q04DX002 (ip), vehicle: saline with Tween-80 91 % of control | [7] 87 % of control

O=[N+]([O-])c1cccc(OCCCOc2ccccc2)c1
inactive: endpoint: mean survival time, dose: 100.0 mg/kg/injection, schedule: Q04DX003 (ip), vehicle: other 93 % of control | endpoint: mean survival time, dose: 200.0 mg/kg/injection, schedule: Q04DX003 (ip), vehicle: other 93 % of control | endpoint: mean survival time, dose: 400.0 mg/kg/injection, schedule: Q04DX003 (ip), vehicle: other 94 % of control

CCCCCCCCCCCC[N+]1(C)CCOCC1
inactive: endpoint: mean survival time, dose: 12.5 mg/kg/injection, schedule: Q01DX009 (ip), vehicle: Klucel (hydroxypropylcellulose) (HPC) 102 % of control | endpoint: mean survival time, dose: 25.0 mg/kg/injection, schedule: Q01DX009 (ip), vehicle: Klucel (hydroxypropylcellulose) (HPC) 98 % of control | endpoint: mean survival time, dose: 50.0 mg/kg/injection, schedule: Q01DX009 (ip), vehicle: Klucel (hydroxypropylcellulose) (HPC) 98 % of control

CC(=O)OCC1OC(Nc2nncs2)C(OC(C)=O)C1OC(C)=O (stereo not given)
inactive: endpoint: median survival time, dose: 12.5 mg/kg/injection, schedule: Q01DX005 (ip), vehicle: distilled water + Tween-80 97 % of control | endpoint: median survival time, dose: 25.0 mg/kg/injection, schedule: Q01DX005 (ip), vehicle: distilled water + Tween-80 96 % of control | endpoint: median survival time, dose: 50.0 mg/kg/injection, schedule: Q01DX005 (ip), vehicle: distilled water + Tween-80 102 % of control | endpoint: median survival time, dose: 100.0 mg/kg/injection, schedule: Q01DX005 (ip), vehicle: distilled water + Tween-80 100 % of control | endpoint: median survival time, dose: 200.0 mg/kg/injection, schedule: Q01DX005 (ip), vehicle: distilled water + Tween-80 100 % of control

CC(=O)Nc1ccc(C(C)=O)cc1
inactive: [4] 108 % of control | [5] 106 % of control | [6] 93 % of control

CC(C)(C)OOC(=O)c1ccccn1
inactive: [7] 95 % of control | endpoint: mean survival time, dose: 200.0 mg/kg/injection, schedule: Q04DX002 (ip), vehicle: saline with Tween-80 95 % of control

CC[n+]1ccc(Nc2ccc(/C=C/c3ccc4cc(Nc5cc[n+](CC)cc5)ccc4[n+]3CC)cc2)cc1
inactive: endpoint: mean survival time, dose: 2.5 mg/kg/injection, schedule: Q01DX009 (oral), vehicle: saline 98 % of control | endpoint: mean survival time, dose: 5.0 mg/kg/injection, schedule: Q01DX009 (oral), vehicle: saline 102 % of control | endpoint: mean survival time, dose: 10.0 mg/kg/injection, schedule: Q01DX009 (oral), vehicle: saline 88 % of control
